For assay [1], the system named is GC rich DNA. In words: Displacement of Ethidium bromide from native ds-GC12 short DNA (unknown origin) by Stern-Volmer quenching plot analysis. The assay is classed as nucleic-acid assay.
Assay [2] concerns GC rich DNA. In words: Disruption of native ds-GC12 DNA (unknown origin) base stacking interaction assessed as appearance of ICD at 320 to 330 nm by circular dichroism analysis. The assay is classed as nucleic-acid assay. Background: Circular dichroism is the unequal absorption of left and right circularly polarised light.
The test system of assay [3] is GC rich DNA. Description: Disruption of native ds-GC12 DNA (unknown origin) base stacking interaction assessed as decrease in positive peak intensity at 283 nm by circular dichroism analysis. The assay is classed as nucleic-acid assay.
In assay [4] the test system is DNA. Description: Induction of GC-rich pYUB12 plasmid DNA (unknown origin) unwinding assessed as DNA structural changes at DNA base-pair to compound ratio of 1:4 incubated for 16 hrs by mobility shift assay. It is filed as nucleic-acid assay.
The subject of assay [5] is DNA. Description: Induction of GC-rich pYUB12 plasmid DNA (unknown origin) unwinding assessed as DNA structural changes at DNA base-pair to compound ratio of 1:6 incubated for 16 hrs by mobility shift assay. It is filed as nucleic-acid assay.
The subject of assay [6] is GC rich DNA. Description: Disruption of native ds-GC12 DNA (unknown origin) base stacking interaction assessed as decrease in positive peak intensity at 283 nm at DNA base-pair to compound ratio of 1:4 by circular dichroism analysis. It is filed as nucleic-acid assay.
Assay [7] in a line: Induction of histone eviction from single assembled nucleosome (unknown origin) assessed as reduction in nucleosome band intensity at 75 uM incubated for 4 hrs by silver staining based gel electrophoresis assay.
Assay [8] deals with GC rich DNA. In words: Disruption of native ds-GC12 DNA (unknown origin) base stacking interaction assessed as appearance of ICD at 325 nm by circular dichroism analysis. The assay is classed as nucleic-acid assay.
Assay [9] has as its system DNA. Description: Induction of GC-rich pYUB12 plasmid DNA (unknown origin) unwinding assessed as complete conformational change as condensed form at DNA base-pair to compound ratio of 1:2 incubated for 16 hrs by mobility shift assay. It is filed as nucleic-acid assay.
Assay [10] relates to DNA. Description: Induction of GC-rich pYUB12 plasmid DNA (unknown origin) unwinding assessed as complete structural change with DNA condensation by measuring increase in condensed DNA band intensity at DNA base-pair to compound ratio of 1:1.5 incubated for 16 hrs by mobility shift assay. It is filed as nucleic-acid assay.
In the next assay the test system is HCT-116. In words: Cytotoxicity against human HCT-116 cells assessed as reduction in cell viability incubated for 24 hrs by MTT assay. It is filed as functional, cell-based. As to conditions: HCT-116, 24 h.
Assay [11] has as its system Calf thymus DNA. In words: Binding affinity to calf thymus DNA by isothermal titration calorimetry. It is filed as nucleic-acid assay. As to conditions: Bos taurus.
Assay [12] concerns Calf thymus DNA. Description: Binding affinity to calf thymus DNA assessed as change in entropy by isothermal titration calorimetry. It is filed as nucleic-acid assay. The settings on record: Bos taurus.
Assay [13] concerns Calf thymus DNA. Description: Binding affinity to calf thymus DNA assessed as change in free energy by isothermal titration calorimetry. It is filed as nucleic-acid assay. As to conditions: Bos taurus. A general note: Isothermal titration calorimetry measures the heat released or taken up as one component is titrated into another.
Assay [14] concerns Calf thymus DNA. Description: Binding affinity to calf thymus DNA assessed as change in enthalpy by isothermal titration calorimetry. It is filed as nucleic-acid assay. The settings on record: Bos taurus.
Assay [15] deals with GC rich DNA. Description: Disruption of native ds-GC12 DNA (unknown origin) base stacking interaction assessed as DNA structural changes by circular dichroism analysis. It is filed as nucleic-acid assay.
Assay [16] concerns GC rich DNA. In words: Disruption of native ds-GC12 DNA (unknown origin) base stacking interaction assessed as DNA structural changes at DNA base-pair to compound ratio of 1:4 by circular dichroism analysis. It is filed as nucleic-acid assay.

Active and inactive are the calls of the source. The calls are words filed in the database; no cut-off is given here.

Broadly, the IC50 is the concentration needed to halve the response being measured.

With `CN(C)CCCNc1nc2cc([N+](=O)[O-])ccc2nc1NCc1ccc(Cl)cc1`, the KSV in the assay on GC rich DNA [1] is 2.4 10^4/M. For the same compound, the outcome with GC rich DNA [2], in the assay on GC rich DNA [3] and in the assay with DNA [4] was Active.
As to `CN(C)CCCNc1nc2cc([N+](=O)[O-])ccc2nc1NCc1ccc(N)cc1`, the result in the assay on DNA [5] and in the assay on GC rich DNA [6] was Active. Further, the KSV in the assay on GC rich DNA [1] is < 1 10^4/M.
`CN(C)CCCNc1nc2cc([N+](=O)[O-])ccc2nc1NCc1ccccc1`: the result with DNA [5] and in the assay on GC rich DNA [6] was Active. For the same compound, the KSV with GC rich DNA [1] is < 1 10^4/M.
For the compound `CN(C)CCCNc1nc2cc([N+](=O)[O-])ccc2nc1NCc1ccncc1`, the KSV in the assay with GC rich DNA [1] is < 0.3 10^4/M.
Still for that read-out and setting: with `CN(C)CCCNc1nc2cc([N+](=O)[O-])ccc2nc1NCc1ccco1` the figure was < 0.3 10^4/M.
As for `CN(C)CCCNc1nc2cc([N+](=O)[O-])ccc2nc1NCc1ccc(C(F)(F)F)cc1`, the result (in assay [7]; in the assay on GC rich DNA [8]; with DNA [9]; in the assay on DNA [10]) was Active. Further, the KSV in the assay with GC rich DNA [1] was 4.6 10^4/M.
On to `O=[N+]([O-])c1ccc2nc(NCc3ccccc3)c(N3CCCCC3)nc2c1`, for which the KSV with GC rich DNA [1] is 0.19 10^4/M. Besides, in the assay on HCT-116, the IC50 was above 50 µM.
As to `Cc1ccc(CNc2nc3ccc([N+](=O)[O-])cc3nc2NCCCN(C)C)cc1`, in the assay on Calf thymus DNA [11], the Ka is 1.54 10^5/M. The TdeltaS in the assay on Calf thymus DNA [12] stood at 5.34 kcal/mol. Moreover, the deltaG in the assay with Calf thymus DNA [13] was -7.2 kcal/mol. The KSV in the assay with GC rich DNA [1] is 1.7 10^4/M. Besides, the deltaH in the assay on Calf thymus DNA [14] was -1.86 kcal/mol. For the same compound, the result in the assay on DNA [4] and in the assay on GC rich DNA [15] was Active.
In the case of `COc1ccc(CNc2nc3ccc([N+](=O)[O-])cc3nc2NCCCN(C)C)cc1`, the result in the assay with DNA [5] and in the assay with GC rich DNA [6] was Active. In addition, the KSV in the assay on GC rich DNA [1] was < 1 10^4/M.
As for `CN(C)CCCNc1nc2cc([N+](=O)[O-])ccc2nc1NCc1ccc([N+](=O)[O-])cc1`, the outcome in the assay with DNA [5] and with GC rich DNA [6] was Active. For the same compound, the KSV in the assay on GC rich DNA [1] is < 1 10^4/M.
Turning to `CN(C)CCCNc1nc2cc([N+](=O)[O-])ccc2nc1NCc1ccc(O)cc1`, in the assay with Calf thymus DNA [11], the Ka was 3.96 10^4/M. For the same compound, the result with DNA [5] and in the assay on GC rich DNA [6] was Active. Moreover, the TdeltaS with Calf thymus DNA [12] was 4.88 kcal/mol. Moreover, the deltaG in the assay on Calf thymus DNA [13] was -6.38 kcal/mol. In addition, in the assay on GC rich DNA [1], the KSV was < 1 10^4/M. In the assay on Calf thymus DNA [14], the deltaH was -1.5 kcal/mol.
On to `CN(C)CCCNc1nc2cc([N+](=O)[O-])ccc2nc1NCc1ccc(F)cc1`, for which, in the assay with GC rich DNA [1], the KSV was 1.26 10^4/M. The outcome with GC rich DNA [6] was Active.
As for `CN(C)CCCNc1nc2cc([N+](=O)[O-])ccc2nc1NCc1cccs1`, the KSV with GC rich DNA [1] was < 0.3 10^4/M. The outcome with GC rich DNA [16] was Active.
With `CN(C)CCCNc1nc2cc([N+](=O)[O-])ccc2nc1NCc1ccc(Br)cc1`, the outcome with DNA [5], in the assay on DNA [9], in the assay on GC rich DNA [2] and in the assay on GC rich DNA [3] was Active. Also, the KSV in the assay on GC rich DNA [1] was 2.8 10^4/M.
Consider `CN(C)CCCNc1nc2cc([N+](=O)[O-])ccc2nc1NCc1ccc(C#N)cc1`, for which the result in the assay on DNA [5] was Active. For the same compound, the KSV in the assay with GC rich DNA [1] was < 1 10^4/M.

These data come from ChEMBL document CHEMBL5154651, “Substituent effect of benzyl moiety in nitroquinoxaline small molecules upon DNA binding: Cumulative destacking of DNA nucleobases leading to histone eviction” (Eur J Med Chem, 2022).
